Experiment [1] deals with A2780. Put plainly: cells. The following applies: Homo sapiens, A2780, 48 h.
Description: Cytotoxicity against human A2780 cells after 48 hrs by MTT assay
Experiment [2] relates to A2780. Put plainly: Resistant factor, ratio of IC50 for p-glycoprotein expressing drug-resistant human A2780AD cells to IC50 for human A2780 cells. In kind it is functional.
Experiment [3] can be described thus: Induction of assembly of GTP-tubulin into microtubules assessed as critical concentration.
Experiment [4] deals with A2780. The following applies: Homo sapiens, A2780, 48 h.
The nature of experiment [5]: Displacement of non-fluorescent ligand from paclitaxel binding site of microtubule.

Take `COc1cccc(C(=O)O[C@H]2[C@@H]3[C@]4(OC(C)=O)CO[C@@H]4C[C@H](OC(=O)[C@H](C)NC(=O)c4ccc(-c5c6cc(F)c(=O)cc-6oc6cc(O)c(F)cc56)c(C(=O)O)c4)[C@@]3(C)C(=O)[C@H](OC(C)=O)C3=C(C)[C@@H](OC(=O)[C@H](O)[C@@H](NC(=O)c4ccccc4)c4ccccc4)C[C@]2(O)C3(C)C)c1`: the values for the IC50 with A2780 [1] and with A2780 [4] were 0.272 µM and 7.2 µM, respectively. For the same molecule, the “Ratio IC50” value with A2780 [2] came to 26.4. Further, the Activity in experiment [3] amounted to 2.17 µM.

For `CC(=O)O[C@@]12CO[C@@H]1C[C@H](O)[C@@]1(C)C(=O)[C@H](O)C3=C(C)[C@@H](OC(=O)[C@H](O)[C@@H](NC(=O)OC(C)(C)C)c4ccccc4)C[C@@](O)([C@@H](OC(=O)c4ccccc4)[C@H]21)C3(C)C.O.O.O` [DOCETAXEL], the IC50 in the experiment on A2780 [1] was 0.0006 µM; with A2780 [4], 0.29 µM. In addition, in the experiment on A2780 [2], the “Ratio IC50” value is recorded as 483. Besides, the Activity in experiment [3] was found to be 2.5 µM.

Turning to `CC(=O)O[C@H]1C(=O)[C@]2(C)[C@@H](OC(=O)[C@H](C)NC(=O)c3ccc(-c4c5cc(F)c(=O)cc-5oc5cc(O)c(F)cc45)c(C(=O)O)c3)C[C@H]3OC[C@@]3(OC(C)=O)[C@H]2[C@H](OC(=O)c2ccccc2)[C@]2(O)C[C@H](OC(=O)[C@H](O)[C@@H](NC(=O)c3ccccc3)c3ccccc3)C(C)=C1C2(C)C` [FLUTAX 2], the IC50 in the experiment on A2780 [1] is 0.8 µM; with A2780 [4], > 20 µM. Besides, in the experiment with A2780 [2], the “Ratio IC50” value is >25. The Activity in experiment [3] amounted to 3.22 µM.

Turning to `COc1cccc(C(=O)O[C@H]2[C@@H]3[C@]4(OC(C)=O)CO[C@@H]4C[C@H](OC(=O)[C@H](C)NC(=O)c4ccc(-c5c6ccc(=O)cc-6oc6cc(O)ccc56)c(C(=O)O)c4)[C@@]3(C)C(=O)[C@H](OC(C)=O)C3=C(C)[C@@H](OC(=O)[C@H](O)[C@@H](NC(=O)c4ccccc4)c4ccccc4)C[C@]2(O)C3(C)C)c1`, the values for the IC50 in the experiment with A2780 [1] and with A2780 [4] were 0.0195 µM and 0.716 µM, respectively. For the same molecule, the “Ratio IC50” value with A2780 [2] is on record as 36.7. In addition, the Activity in experiment [3] stood at 2.26 µM.

In the experiment on A2780 [1], `CC(=O)O[C@H]1C(=O)[C@@]2(C)[C@H]([C@H](OC(=O)c3ccccc3)[C@]3(O)C[C@H](OC(=O)[C@H](O)[C@@H](NC(=O)c4ccccc4)c4ccccc4)C(C)=C1C3(C)C)[C@]1(OC(C)=O)CO[C@@H]1C[C@@H]2O` [PACLITAXEL] had an IC50 of 0.0013 µM. Further, in experiment [3], the Activity was found to be 4.23 µM.

For the molecule `CC(=O)O[C@H]1C(=O)[C@]2(C)[C@@H](OC(=O)[C@H](C)NC(=O)c3ccc(-c4c5ccc(=O)cc-5oc5cc(O)ccc45)c(C(=O)O)c3)C[C@H]3OC[C@@]3(OC(C)=O)[C@H]2[C@H](OC(=O)c2ccccc2)[C@]2(O)C[C@H](OC(=O)[C@H](O)[C@@H](NC(=O)c3ccccc3)c3ccccc3)C(C)=C1C2(C)C` [FLUTAX 1], the IC50 was 0.256 µM with A2780 [1] and > 20 µM in the experiment on A2780 [4]. The “Ratio IC50” value with A2780 [2] was >78. Moreover, the Activity in experiment [3] was determined as 3.84 µM.

Turning to `C/C=C(\C)C(=O)N[C@@H](c1ccccc1)[C@@H](O)C(=O)O[C@H]1C[C@@]2(O)[C@@H](OC(=O)c3cccc(N=[N+]=[N-])c3)[C@@H]3[C@]4(OC(C)=O)CO[C@@H]4C[C@H](OC(=O)[C@H](C)NC(=O)c4ccc(-c5c6ccc(=O)cc-6oc6cc(O)ccc56)c(C(=O)O)c4)[C@@]3(C)C(=O)[C@H](OC(C)=O)C(=C1C)C2(C)C`, the IC50 was 0.22 µM in the experiment with A2780 [1] and > 20 µM in the experiment on A2780 [4]. Moreover, the “Ratio IC50” value in the experiment with A2780 [2] is listed as >91. Besides, the Activity in experiment [3] is 2.45 µM.

Take `C/C(=C\c1csc(C)n1)[C@@H]1C[C@@H]2O[C@]2(C)CCC[C@H](C)[C@H](O)[C@@H](C)C(=O)C(C)(C)[C@@H](O)CC(=O)O1`: the Ka in experiment [5] is 7.5 ×10⁸ /M.

For orientation: IC50 means the midpoint of a concentration-inhibition curve. A low value points to greater potency in that assay.

These data come from ChEMBL document CHEMBL1143357, “Synthesis and biological activities of high affinity taxane-based fluorescent probes” (Bioorg Med Chem Lett, 2009).
